Data on three compounds can be found in patent US5140102A, “Pentadecapeptide, guanylin, which stimulates intestinal guanylate cyclase” (Monsanto Company, priority 1991, dated 1992).

Structures are written as SMILES. Positions of bridges follow the written chain, without caps; N, C: chain ends. Residues, ends and D or L forms follow the SMILES beside them.

In assay [1] the target is T1, intestinal guanylate cyclase (Homo sapiens, UniProt P25092).
T1 construct: Monolayers of T84 cells in 24-well plates were washed twice; host or cells: T84 human colon carcinoma cells
T1 sequence (P25092 24-1073): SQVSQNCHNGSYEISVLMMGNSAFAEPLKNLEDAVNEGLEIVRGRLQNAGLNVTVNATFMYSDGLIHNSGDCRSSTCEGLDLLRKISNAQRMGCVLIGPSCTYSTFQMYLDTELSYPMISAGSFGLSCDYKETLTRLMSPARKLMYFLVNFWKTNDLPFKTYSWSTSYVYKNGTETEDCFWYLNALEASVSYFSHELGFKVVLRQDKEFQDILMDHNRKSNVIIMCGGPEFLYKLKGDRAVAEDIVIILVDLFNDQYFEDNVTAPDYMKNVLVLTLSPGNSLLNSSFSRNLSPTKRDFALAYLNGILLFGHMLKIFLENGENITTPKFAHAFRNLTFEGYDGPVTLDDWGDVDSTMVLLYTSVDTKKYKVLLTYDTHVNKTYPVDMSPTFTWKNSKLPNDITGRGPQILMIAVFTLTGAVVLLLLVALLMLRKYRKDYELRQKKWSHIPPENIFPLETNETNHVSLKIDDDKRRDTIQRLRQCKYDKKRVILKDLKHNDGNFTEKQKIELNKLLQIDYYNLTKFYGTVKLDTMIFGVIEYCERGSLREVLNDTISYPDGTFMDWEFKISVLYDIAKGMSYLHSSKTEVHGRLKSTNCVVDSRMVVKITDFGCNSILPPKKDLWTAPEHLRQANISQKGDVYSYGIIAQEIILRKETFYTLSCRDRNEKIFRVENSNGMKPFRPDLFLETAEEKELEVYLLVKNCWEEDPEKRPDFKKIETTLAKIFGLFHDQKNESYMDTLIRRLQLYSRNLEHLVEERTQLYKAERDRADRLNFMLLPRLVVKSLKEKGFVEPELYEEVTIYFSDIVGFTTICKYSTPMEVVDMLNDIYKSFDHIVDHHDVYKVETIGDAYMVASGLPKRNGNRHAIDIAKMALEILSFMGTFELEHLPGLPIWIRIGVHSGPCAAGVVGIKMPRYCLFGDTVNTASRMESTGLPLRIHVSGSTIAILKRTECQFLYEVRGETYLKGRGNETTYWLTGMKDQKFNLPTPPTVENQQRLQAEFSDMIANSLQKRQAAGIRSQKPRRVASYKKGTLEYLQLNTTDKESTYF
In words: Cyclic GMP determination in T84 cells (bioassay). In kind it is cell-based.

A further assay deals with proximal colon. The settings on record: read-out: EC50 for increase in Isc (X±S.E.); mucosal (luminal) addition, rat proximal colon, n=4 animals.

Regarding `CC[C@H](C)[C@@H]1NC(=O)[C@H](CCCNC(=N)N)NC(=O)[C@H](CC(=O)O)NC(=O)[C@H](CCSC)NC(=O)[C@H](CCCNC(=N)N)NC(=O)CNC(=O)CNC(=O)[C@H](Cc2ccccc2)NC(=O)[C@@H](NC(=O)[C@H](CO)NC(=O)[C@H](CO)NC(=O)[C@H](CCCNC(=N)N)NC(=O)[C@H](CCCNC(=N)N)NC(=O)[C@H](CC(C)C)NC(=O)[C@@H](N)CO)CSSC[C@@H](C(=O)N[C@@H](CC(N)=O)C(=O)N[C@@H](CO)C(=O)N[C@@H](Cc2ccccc2)C(=O)N[C@@H](CCCNC(=N)N)C(=O)N[C@@H](Cc2ccc(O)cc2)C(=O)O)NC(=O)CNC(=O)[C@H](CC(C)C)NC(=O)CNC(=O)[C@H](CO)NC(=O)[C@H](CCC(N)=O)NC(=O)[C@H](C)NC(=O)CNC1=O` [atrial natriuretic peptide], the “effect on cyclic GMP levels” value in assay [1] is on record as “not detected”.
On to `CC[C@H](C)[C@@H]1NC(=O)[C@H](CCC(=O)O)NC(=O)[C@@H](NC(=O)[C@@H](NC(=O)[C@H](CC(N)=O)NC(=O)[C@@H]2CCCN2)[C@@H](C)O)CSSC[C@@H]2NC(=O)[C@H](C)NC(=O)[C@H](C)NC(=O)[C@H](Cc3ccc(O)cc3)NC(=O)[C@H](C)NC(=O)[C@H](CSSC[C@@H](C(=O)O)NC(=O)CNC(=O)[C@H]([C@@H](C)O)NC2=O)NC1=O` [guanylin] (H-PNTCEICAYAACTGC-OH; disulfide 4-12, 7-15), for which the 50% effective concentration (EC50) in the assay on proximal colon stood at 162 ± 26 nM.
With `O[C@H](CS)[C@H](O)CS` (racemic) [DTT, dithiothreitol], the “effect on responsiveness of the cells” value in assay [1] (T84 cells treated with 10 μM) is listed as “failed to affect their responsiveness”.
